# Measured values published in PubChem BioAssay (NCI).
# “And” between values parts separate entries of the source, which are not always exact repeats. Identical values can stand only once.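 Compound exposure: 48 hours, 5 concentrations, 96-well plates. Abbreviation: GI50, concentration required for 50% inhibition of growth. Definition used: TGI = concentration required for complete inhibition of growth.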 Where a SMILES comes first, the peptide text is derived from it. [ ]: non-standard residue; d: D form. The star is where a group is joined. Dolaproine = CO[C@@H]([C@@H]1CCCN1)[C@@H](C)C(=O)O; Dil = CC[C@H](C)[C@H](NC)[C@@H](CC(=O)O)OC; X2 = C[C@@H](N*)[C@@H](O)c1ccccc1; NMeV = CN[C@H](C(=O)O)C(C)C
# Columns and labels:
# Test in all cases: NCI-60 cell line screen, 48 h
# [1] = test system: MDA-MB-468 breast
# [2] = test system: ACHN renal
# [3] = test system: BT-549 breast
# [4] = test system: CCRF-CEM leukemia
# [5] = test system: COLO 205 colon
# [6] = test system: DU-145 prostate
# [7] = test system: HCC-2998 colon
# [8] = test system: HCT-116 colon
# [9] = test system: HCT-15 colon
# [10] = test system: HL-60(TB) leukemia
# [11] = test system: HT29 colon
# [12] = test system: IGROV1 ovarian
# [13] = test system: K-562 leukemia
# [14] = test system: KM12 colon
# [15] = test system: M14 melanoma
# [16] = test system: MALME-3M melanoma
# [17] = test system: MCF7 breast
# [18] = test system: MDA-MB-231 breast
# [19] = test system: MDA-MB-435
# [20] = test system: MOLT-4 leukemia
# [21] = test system: OVCAR-4 ovarian
# [22] = test system: OVCAR-5 ovarian
# [23] = test system: OVCAR-8 ovarian
# [24] = test system: SF-539 CNS
# [25] = test system: SK-MEL-2 melanoma
# [26] = test system: SK-MEL-28 melanoma
# [27] = test system: SK-MEL-5 melanoma
# [28] = test system: SN12C renal
# [29] = test system: SNB-19 CNS
# [30] = test system: SR leukemia
# [31] = test system: T-47D breast
# [32] = test system: TK-10 renal
# [33] = test system: UACC-257 melanoma
# [34] = test system: UACC-62 melanoma
# [35] = test system: UO-31 renal
compound,measurement,setting,value
O=C1Nc2ccccc2/C1=C\c1c(-c2ccccc2)nc2ccccn12,GI50,[1],2100 nM
same,TGI,[1],6670 nM
COc1cccc(C2=C(c3cn(C)c4ccc(Cl)cc34)C(=O)NC2=O)c1,GI50,[1],4170 nM
same,TGI,[1],17100 nM
N#CC1(Nc2ccc(Br)cc2)CCCC1,GI50,[1],> 100000 nM
same,TGI,[1],> 100000 nM
O=C(Nc1ccc2[nH]c3ccccc3c2c1)c1ccccc1Cl,GI50,[1],2860 nM
same,TGI,[1],24900 nM
CCOc1cc(F)c([N+](=O)[O-])cc1[N+](=O)[O-],GI50,[1],1860 nM
same,TGI,[1],3510 nM
O=C(C[n+]1cccc2cc(Cl)ccc21)c1ccc2c(c1)CCCC2,GI50,[1],423 nM
same,TGI,[1],1820 nM
C[C@@H]1C[C@H]2C(=O)OCC(NC(=O)[C@H](Cc3cc(F)cc(F)c3)NC(=O)Nc3ccc(Cl)cc3F)C(=O)N3CCC[C@H]3C(=O)N3CCCC[C@H]3C(=O)N[C@@H](C)C(=O)N2C1 (stereo not given in full),GI50,[1],1430 nM and 294 nM
same,TGI,[1],18800 nM and 2880 nM
O=C1/C(=C/c2ccccc2)CN(C(=O)CCN2CCC(=NO)CC2)C/C1=C\c1ccccc1,GI50,[1],1740 nM
same,TGI,[1],4250 nM
CC[N+](CC)=c1cc2oc3cc(N(C)C)ccc3nc-2cc1C,GI50,[1],1330 nM
same,TGI,[1],4390 nM
Cc1ccc(S(=O)(=O)c2ccccc2)cc1,GI50,[1],1590 nM
same,TGI,[1],5780 nM
COc1ccc(/C(C)=C(\c2ccc(Cl)cc2)c2ccc(OCCN3CCCCC3)cc2)cc1,GI50,[1],3670 nM
same,TGI,[1],8030 nM
O=C(Nc1ncc(Cc2ccccc2)s1)c1sc2ccccc2c1Cl,GI50,[1],1400 nM
same,TGI,[1],18700 nM
Clc1ccc(C(Cn2ccnc2)OCc2ccsc2Cl)c(Cl)c1 (stereo not given),GI50,[1],2300 nM
same,TGI,[1],7300 nM
Nc1ccc(S(=O)(=O)c2ccc(N)cc2)cc1,GI50,[1],> 100000 nM
same,TGI,[1],> 100000 nM
c1cc[n+](C2c3ccccc3C([n+]3ccccc3)c3ccccc32)cc1 (stereo not given),GI50,[1],1110 nM
same,TGI,[1],4400 nM
O=C(NCCCCCCCCCC[P+](c1ccccc1)(c1ccccc1)c1ccccc1)c1ccc(-n2nc(-c3ccccc3O)nc2-c2ccccc2O)cc1,GI50,[2],379 nM
same,TGI,[2],1360 nM
same,GI50,[3],104 nM
same,TGI,[3],673 nM
same,GI50,[4],39.6 nM
same,TGI,[4],> 100000 nM
same,GI50,[5],50.8 nM
same,TGI,[5],268 nM
same,GI50,[6],46.4 nM
same,TGI,[6],1630 nM
same,GI50,[7],57.4 nM
same,TGI,[7],1430 nM
same,GI50,[8],37.7 nM
same,TGI,[8],1080 nM
same,GI50,[9],566 nM
same,TGI,[9],2480 nM
same,GI50,[10],56.5 nM
same,TGI,[10],461 nM
same,GI50,[11],40.1 nM
same,TGI,[11],789 nM
same,GI50,[12],48.3 nM
same,TGI,[12],1180 nM
same,GI50,[13],44.9 nM
same,TGI,[13],3210 nM
same,GI50,[14],203 nM
same,TGI,[14],1340 nM
same,GI50,[15],82.5 nM
same,TGI,[15],1320 nM
same,GI50,[16],30.7 nM
same,TGI,[16],190 nM
same,GI50,[17],41.7 nM
same,TGI,[17],953 nM
same,GI50,[18],99.3 nM
same,TGI,[18],728 nM
same,GI50,[19],40.9 nM
same,TGI,[19],1110 nM
same,GI50,[1],25.5 nM
same,TGI,[1],121 nM
same,GI50,[20],58.5 nM
same,TGI,[20],1430 nM
same,GI50,[21],180 nM
same,TGI,[21],2210 nM
same,GI50,[22],192 nM
same,TGI,[22],926 nM
same,GI50,[23],74 nM
same,TGI,[23],1220 nM
same,GI50,[24],172 nM
same,TGI,[24],716 nM
same,GI50,[25],133 nM
same,TGI,[25],530 nM
same,GI50,[26],115 nM
same,TGI,[26],1590 nM
same,GI50,[27],165 nM
same,TGI,[27],447 nM
same,GI50,[28],40.7 nM
same,TGI,[28],721 nM
same,GI50,[29],50.5 nM
same,TGI,[29],1170 nM
same,GI50,[30],< 19.1 nM
same,TGI,[30],> 40500 nM
same,GI50,[31],35.2 nM
same,TGI,[31],522 nM
same,GI50,[32],330 nM
same,TGI,[32],1500 nM
same,GI50,[33],90.4 nM
same,TGI,[33],792 nM
same,GI50,[34],84 nM
same,TGI,[34],568 nM
same,GI50,[35],428 nM
same,TGI,[35],1930 nM
COc1cccc2[nH]c3c4c(c5c(c3c12)C(=O)N(CN1CCN(C)CC1)C5=O)CCC4,GI50,[1],5150 nM
same,TGI,[1],26600 nM
O=C(Cc1n[nH]c(=O)c2ccccc12)OCc1c(Cl)cccc1Cl,GI50,[1],> 100000 nM
same,TGI,[1],> 100000 nM
COC1=C(OC)C(=O)C(CCCCCCCCCC[P+](c2ccccc2)(c2ccccc2)c2ccccc2)=C(C)C1=O,GI50,[1],66.8 nM
same,TGI,[1],694 nM
C[C@]12CC[C@@H]3c4ccc(O)cc4CC[C@H]3[C@@H]1CC[C@@H]2NS(=O)(=O)c1ccc(Cl)cc1,GI50,[1],4940 nM
same,TGI,[1],17300 nM
NC(N)=NN=C(c1ccccc1)c1ccccc1,GI50,[1],2200 nM
same,TGI,[1],12200 nM
CCNC(=O)N1CCc2cc(OC)c(OCCc3ccc(OC)cc3)cc2C1c1ccc(OC)cc1C (stereo not given),GI50,[1],1930 nM
same,TGI,[1],> 30200 nM
CSc1nc(-c2cc3ccccc3o2)cc(-c2ccc(Cl)cc2)c1C#N,GI50,[1],21800 nM
same,TGI,[1],> 100000 nM
COc1cc(Nc2ccnc(NCCNc3ccnc4cc(Cl)ccc34)n2)cc(OC)c1,GI50,[1],1040 nM
same,TGI,[1],3330 nM
Cc1ccc(C)c(NC2=C(Cl)C(=O)c3nc(C)ccc3C2=O)c1,GI50,[1],1510 nM
same,TGI,[1],3080 nM
CNC(=O)c1ccccc1Nc1cc(Nc2ccc(N3CCOCC3)cc2OC)ncc1C(F)(F)F,GI50,[1],27800 nM
same,TGI,[1],97800 nM
Nc1n[nH]c2cccc(C#Cc3cccc(NC(=O)c4ccc(N5CCOCC5)c(C(F)(F)F)c4)c3)c12,GI50,[1],2280 nM
same,TGI,[1],6820 nM
O=C1/C=C/[C@@H](O)[C@@H]2C[C@@H](O)C[C@H]2/C=C/CCC[C@H](CCOCc2ccccc2)O1,GI50,[1],< 16.1 nM
same,TGI,[1],31.2 nM
Cc1nc2ccccc2nc1NNc1ccccc1,GI50,[1],10300 nM
same,TGI,[1],58000 nM
COc1ccc2c(c1)C=CC1(O2)Oc2ccc(OC)cc2C=C1C (stereo not given),GI50,[1],876 nM
same,TGI,[1],> 100000 nM
COc1ccc2cc(C#Cc3ccc(-n4c(/C=C/c5cc(OC)c(OC)c(OC)c5)nc5ccccc5c4=O)c(C)c3)ccc2c1,GI50,[1],3800 nM
same,TGI,[1],> 100000 nM
C=CC(=O)N1CCN(CCCn2c(=O)c(-c3c(Cl)c(OC)cc(OC)c3Cl)cc3cnc(NC)nc32)CC1,GI50,[1],1240 nM
same,TGI,[1],5900 nM
COc1ccc(-c2cn[nH]c2-c2cc(OC)c(OC)c(OC)c2)cc1OCc1ccccc1,GI50,[1],2180 nM
same,TGI,[1],7940 nM
CCCCC(CCCCCC(CCCC)C1NC(C)Cc2cc(OC)c(OC)cc21)C1NC(C)Cc2cc(OC)c(OC)cc21 (stereo not given),GI50,[1],436 nM
same,TGI,[1],1880 nM
Clc1ccc2c(N3CCN(c4ccnc(NC5CCCCC5)n4)CC3)ccnc2c1,GI50,[1],1640 nM
same,TGI,[1],3600 nM
COc1cc(/C=C/C(=O)c2ccc(Nc3nc(NCCO)nc(N4CCOCC4)n3)cc2)cc(OC)c1OC,GI50,[1],1340 nM
same,TGI,[1],3760 nM
CC[C@H](C)[C@H](NC(=O)c1ccccn1)C(=O)N(C)[C@H](C[C@@H](OC(C)=O)c1nc(C(=O)N[C@@H](Cc2ccccc2)C[C@H](C)C(=O)OC)cs1)C(C)C,GI50,[1],3380 nM
same,TGI,[1],15400 nM
COc1cc(C2C3=C(COC3=O)N(CCO)c3cc4c(cc32)OCO4)cc(OC)c1OC (stereo not given),GI50,[1],242 nM and 344 nM
same,TGI,[1],626 nM and 979 nM
CC1CCCc2sc3nc(NNC(=O)c4cnccn4)n(-c4ccccc4)c(=O)c3c21 (stereo not given),GI50,[1],333 nM and 239 nM
same,TGI,[1],2300 nM and 946 nM
CN[C@@H](C)C(=O)N[C@H]1CCS[C@H]2CC(C)(C)[C@@H](C(=O)N[C@H]3c4ccccc4C[C@H]3OCC#CC#CCO[C@@H]3Cc4ccccc4[C@@H]3NC(=O)[C@H]3N4C(=O)[C@@H](NC(=O)[C@H](C)NC)CCS[C@H]4CC3(C)C)N2C1=O,GI50,[1],< 5 nM
same,TGI,[1],16.4 nM
CC[C@H](C)[C@@H]([C@@H](CC(=O)N1CCC[C@H]1[C@H](OC)[C@@H](C)C(=O)N[C@H](C)[C@@H](O)c1ccccc1)OC)N(C)C(=O)[C@@H](NC(=O)[C@@H](NC)C(C)C)C(C)C (H-[NMeV]V[Dil][Dolaproine]-X2),GI50,[1],< 5 nM
same,TGI,[1],> 57100 nM
